Laboratory results taken from the METLIN SMRT retention time set (Domingo-Almenara et al. 2019).

Test: gradient 5% acetonitrile 3 min, to 50% in 2 min, to 85% in 15 min, held 3 min, 100 µL/min
Conditions: column: Zorbax Extend-C18 2.1 x 50 mm; eluents: water / acetonitrile, 0.1% formic acid
Summary of the method: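 Pure standards were run in mixtures of ~100 molecules by HPLC coupled to a quadrupole time-of-flight mass spectrometer. The column was a Zorbax Extend-C18 (2.1 × 50 mm, 1.8 μm) at 100 μL/min, with water and acetonitrile each containing 0.1% formic acid, in positive and negative ionization mode. Dead and dwell volumes were 40 μL and 900 μL. Retention time was taken from computationally picked adduct peaks, each manually inspected, with data collected over 3 months.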

SMILES | RP-LC retention time
O=c1ccc(-c2cccc(Cl)c2)nn1CCc1nc(-c2ccc3c(c2)OCO3)no1 | 999 s
O=C(NCCCN1CCOCC1)c1csc(-c2ccc(N3CCCC3)nc2)n1 | 553 s
Cc1ccc(S(=O)(=O)NCC2CN(C(C)C)CC23CCCCC3)c(C)c1 (stereo not given) | 738 s
COc1cccc2c(Nc3ccc(S(N)(=O)=O)cc3)cc(C(=O)N3CCSCC3)nc12 | 595 s
CCc1nc2cc(N3CCCC(C(=O)NC(C)c4cccnc4)C3)cnc2nc1CC (stereo not given) | 606 s
CCOc1ccccc1NC(=O)N1CCC2(CC1)NC(=O)c1cc(F)ccc1N2C | 817 s
CCC(C)NC(=O)c1cc(COc2ccc(NC(=O)C(C)(C)C)cc2)on1 (stereo not given) | 900 s
CCN(CC)C(=O)N1CCC(Oc2ccc(-c3noc(COC)n3)cc2)C1 (stereo not given) | 874 s
COc1ccc(NC2=NS(=O)(=O)C(c3ccccc3)=C2C)cc1OC | 802 s
CCS(=O)(=O)N1CCCc2cc(C(=O)NC3CCCC3)ccc21 | 837 s
O=C(NCC1CN(c2ccc3c(c2)OCO3)C(=O)O1)c1ccccc1C(F)(F)F (stereo not given) | 880 s
COC[C@@H]1CN(S(=O)(=O)c2cccc(C#N)c2)C[C@H]1c1ccccn1 | 715 s
O=C(COc1ccccc1F)N1CC(c2nc3ccccc3[nH]2)C1 | 578 s
Cc1cc(NC(=O)c2cn3c(n2)CSCC3)ccc1F | 743 s
Cc1ccccc1NC(=O)CN1C(=O)CCc2cc(S(=O)(=O)N3CCCCC3C)ccc21 (stereo not given) | 896 s
Nc1nc(N2CCN(C3CCCCC3)CC2)ncc1C(=O)Nc1ccccc1 | 624 s
Cc1nc(OCC(=O)N2CCCCCC2)c2c(-c3ccc(F)cc3)noc2n1 | 1100 s
CC(C)Oc1cccc(NC(=O)C2CCN(S(C)(=O)=O)c3ccccc3O2)c1 (stereo not given) | 830 s
Cc1cnc(C2CCN(S(=O)(=O)c3ccccc3)C2)n1C(C)C (stereo not given) | 564 s
CCc1ccc(NC(=O)CSc2nccc(N3CCN(c4cc(C)ccc4C)CC3)n2)cc1 | 995 s
CCCN(CC1CCOC1)C(=O)Nc1cc(F)cc(F)c1 (stereo not given) | 871 s
Cc1nc(-c2csc(S(=O)(=O)N3CCCC(C(=O)Nc4cccc(C#N)c4)C3)c2)no1 (stereo not given) | 930 s
CCc1ccc(S(=O)(=O)NCCc2cn(CC(C)C)c3ncccc23)cc1 | 946 s

SMILES | RP-LC retention time
CCc1nc(-c2csc(S(=O)(=O)N3CCC(C(=O)Nc4ccc(C)c(F)c4)CC3)c2)no1 | 1060 s
O=C(NCCC1=CCCCC1)c1nnc(-c2ccc(S(=O)(=O)N3CCOCC3)cc2)o1 | 984 s
Cc1ccc2[nH]cc(CCN3CC(C(=O)Nc4ccccc4C)CC3=O)c2c1 (stereo not given) | 798 s
Cc1cc(NC(=O)CSc2ccc(NC(=O)c3cccc(F)c3)nn2)no1 | 750 s
Cc1cc2nn(CC(=O)NC3CCCCC3)c(=O)n2c(-c2ccccc2)n1 | 764 s
CCn1cnc2cc(CNC(=O)c3cc(C)cc(C)c3)ccc21 | 646 s
COC(=O)c1ccc(NC(=O)N2CCC3(CC2)NC(=O)c2ccccc2O3)cc1 | 726 s
Cc1nc2cc(-c3noc(-c4cccc(Br)c4)n3)ccc2n(C)c1=O | 1170 s
Cc1oc2ccn(Cc3cccc(F)c3)c(=O)c2c1C(=O)NCC1CCCO1 (stereo not given) | 891 s
Cc1ccc(NS(=O)(=O)c2cc3n(c2)CCN(C)C3=O)cc1F | 716 s
CCOC(=O)CCC(=O)Nc1ccc(-c2nnc(N(C)c3ccccc3)s2)cc1 | 702 s
COC(=O)c1ccc(NC(=O)N(Cc2cc(=O)[nH]c3ccccc23)CC(C)C)cc1 | 830 s
COc1cccc(-c2noc(CN3C(=O)C(C)Oc4ccccc43)n2)c1 (stereo not given) | 1060 s
CCN(CC)CCn1c(C)c(C)c2c1ncn1nc(-c3cccnc3)nc21 | 590 s
Cc1cc(F)ccc1NC(=O)C1CCN(S(=O)(=O)c2cn(C(C)C)cn2)CC1 | 732 s
O=C(CCCN1C(=O)c2cccnc2Sc2ccccc21)N1CCN(c2ccccn2)CC1 | 592 s
Cc1ccc(Oc2ccc(NS(=O)(=O)c3cccs3)cc2)nn1 | 687 s
CCN1CCCc2cc(C(=O)NC3CCCCC3)sc21 | 1010 s
CCCNC(=O)C1CCN(c2ccc(SCC(=O)Nc3ccc(C(=O)OC)cc3)nn2)CC1 | 638 s
O=C(COc1ccccc1)Nc1ccc2c(c1)N(C(=O)c1ccco1)CCC2 | 899 s
CN1C(=O)c2cc(C(=O)NCc3ccccc3F)nn2CC1(C)C(=O)NCc1ccc(F)cc1 (stereo not given) | 792 s
O=S(=O)(c1cccc(F)c1)N1CC(c2nc(CCOCC3CC3)no2)C1 | 907 s
Cc1ccnc(N2CCC(C(=O)NCCc3ccco3)CC2)n1 | 640 s

SMILES | RP-LC retention time
CCCN1CCN(c2ccc(-c3nc(-c4ccc(C)cc4)no3)cn2)CC1 | 750 s
COC1CCC12CCN(S(=O)(=O)c1ccc(C)c(F)c1)CC2 (stereo not given) | 1090 s
CCC(CC)C(=O)N1CCCN(C2=NS(=O)(=O)C(c3ccc(F)cc3)=C2C)CC1 | 811 s
Cc1cc(-c2nn3c(C4CCCCC4)nnc3s2)c2ccccc2n1 | 949 s
CCC1CN(C(=O)Nc2cccc(C(=O)OC)c2)c2ccccc2O1 (stereo not given) | 1020 s
O=C(Cc1nnc(-c2cnccn2)o1)Nc1cccc(C(F)(F)F)c1 | 780 s
CCOC(=O)N1CCN(C(=O)c2cn(CC(O)c3ccccc3)nn2)CC1 (stereo not given) | 634 s
COc1cccc(-c2nnc(Cc3nc(-c4cccc(C)c4)no3)o2)c1 | 1050 s
CN(C)C(CNC(=O)c1cc(=O)c2cc(Cl)ccc2o1)c1ccccc1 (stereo not given) | 650 s
O=c1c2ccccc2n(Cc2nc(-c3ccc(C(F)(F)F)cc3)no2)c(=O)n1CC1CCCO1 (stereo not given) | 1100 s
c1ccc(-c2nc(-c3ccc(-n4cccn4)nc3)no2)cc1 | 1200 s
Cc1ccc(S(=O)(=O)N2CCC(CCC(=O)O)CC2)cc1 | 799 s
O=C(Cn1nc(N2CCCCCC2)c2ccccc2c1=O)Nc1ccccc1F | 1120 s
COc1cc(NC(=O)N2CCN(Cc3ccccc3)c3ncccc32)cc(OC)c1OC | 665 s
O=C(c1ccc(=O)[nH]c1)N1CC(c2nc(-c3ccccn3)no2)C1 | 666 s
CCC1(O)CCOC2(CCN(Cc3cccc(OC)n3)CC2)C1 (stereo not given) | 602 s
O=S(=O)(NCC(O)c1ccc(C(F)(F)F)cc1)c1ccc2c(c1)OCCO2 (stereo not given) | 817 s
COc1ccc(C2=NC3(CCCCC3)N(CC(=O)Nc3cc(OC)cc(OC)c3)C2=O)cc1 | 660 s
NC(=O)Cn1cnc2nc(N3CCC(C(=O)NC4CC4)CC3)sc2c1=O | 566 s
Cc1ccc(S(=O)(=O)N2CCC3(CC2)NCCCN=C3NC2CCCC2)cc1Cl | 814 s
CN(C)C(=O)c1cc2c(s1)CCC(C(=O)NC1CCCC1)C2 (stereo not given) | 696 s
CCOC(=O)C(C)NC(=O)NCC(=O)N1CCc2ccccc21 (stereo not given) | 696 s
CN1CCO[C@@H](C(=O)NC2CC2)[C@@H]1c1ccccc1 | 562 s

SMILES | RP-LC retention time
Cc1ccc(NC(=O)C2CCCN(c3nccnc3Sc3ccc(C)cc3)C2)cc1 (stereo not given) | 1200 s
CC1CCN(C(=O)c2nc(CCS(=O)(=O)c3ccc(Cl)cc3)no2)CC1 | 974 s
CCCn1nc(CNC(=O)COc2ccccc2)c2ccccc21 | 900 s
CCc1noc(C2(NC(=O)c3cc(-c4ccccc4)n[nH]3)CCCCC2)n1 | 906 s
CCOC(=O)c1nc(N2CCN(c3ccc(C)cc3C)CC2)c2ccccc2n1 | 1110 s
COc1ncccc1CNC(=O)c1cccs1 | 694 s
CCOc1ccc(NC(=O)Nc2cc(C(C)C)ccc2C)cc1 | 1160 s
Cc1c(Cl)cccc1Nc1c(-c2cccc(O)c2)nc2cnccn12 | 813 s
O=C(NCCn1cnc2cc(C(=O)N3CCCC3)ccc21)Nc1ccc(Br)cc1F | 639 s
Cc1ccc(C)c(N2CCN(C(=O)c3cn4cc(C)ccc4n3)CC2)c1 | 797 s
CCc1nc2nccc(-c3cccc(OC)c3)n2n1 | 762 s
COc1cccc(CC(=O)N2CCC(C(=O)NCc3csc(-c4cccs4)n3)CC2)c1 | 774 s
CCN1CCN(S(=O)(=O)c2cc(-c3nnc(-c4ccccc4)o3)ccc2OC)CC1 | 636 s
CCOCCCN1C(=O)CN(C2CCCCCC2)C(=O)C1c1ccc(OC)cc1 (stereo not given) | 902 s
COc1ccc(CN2CC[C@]3(CO)CN(Cc4ccccc4)C[C@@H]3C2)c(Cl)c1OC | 579 s
Cc1ccc(NC(=O)Cn2nc3c(N4CCN(c5ccccc5)CC4)nccn3c2=O)cc1C | 975 s
CC(C)CCN1CCC(N(Cc2cccnc2)C2CCOCC2)CC1 | 551 s
Cc1ccccc1S(=O)(=O)N1CCCC(C)(C(=O)NCc2ccccc2)C1 (stereo not given) | 944 s
O=C(NCc1cccc(Cl)c1)C1CCCN(c2nc3ccsc3c(=O)n2Cc2ccccc2)C1 (stereo not given) | 988 s
Cc1cc(S(=O)(=O)[C@H]2CS(=O)(=O)C[C@@H]2N2CCN(c3cccc(Cl)c3)CC2)ccc1F | 1090 s
Cc1noc(C)c1C1CCCN1C(=O)NC(C)C (stereo not given) | 656 s
